The values that follow come from US20230140216A1, “COMBINATION THERAPY FOR TREATING MPS1” (GAIN THERAPEUTICS SA, priority 2020, published 2023).

The assay deals with T1, Recombinant human α-L-iduronidase protein (Homo sapiens, UniProt P35475).
T1 construct: purchased R&D
T1 sequence (P35475 28-653): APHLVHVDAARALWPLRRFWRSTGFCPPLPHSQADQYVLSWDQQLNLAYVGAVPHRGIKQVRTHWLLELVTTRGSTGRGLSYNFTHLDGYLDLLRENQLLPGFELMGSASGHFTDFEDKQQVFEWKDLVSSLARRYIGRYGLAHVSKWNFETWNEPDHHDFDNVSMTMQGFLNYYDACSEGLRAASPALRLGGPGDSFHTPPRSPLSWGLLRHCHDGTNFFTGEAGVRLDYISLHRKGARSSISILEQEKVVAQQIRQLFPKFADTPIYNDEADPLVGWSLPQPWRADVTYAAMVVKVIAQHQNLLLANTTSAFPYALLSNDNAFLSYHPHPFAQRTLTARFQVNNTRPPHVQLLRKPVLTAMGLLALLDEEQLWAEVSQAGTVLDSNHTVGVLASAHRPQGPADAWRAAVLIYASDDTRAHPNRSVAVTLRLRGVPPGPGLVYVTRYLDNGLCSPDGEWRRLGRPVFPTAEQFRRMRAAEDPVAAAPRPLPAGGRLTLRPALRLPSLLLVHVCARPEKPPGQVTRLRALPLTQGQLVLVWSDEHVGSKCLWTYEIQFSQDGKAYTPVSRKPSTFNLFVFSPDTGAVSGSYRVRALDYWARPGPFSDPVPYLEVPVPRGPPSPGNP
Briefly: Differential scanning fluorimetry (DSF) thermal stabilization. It is filed as binding. The gist of the method: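 Purified recombinant human α-L-iduronidase (final 0.75 µM) in 100 mM Hepes, 20 mM MgCl2, pH 7 with SYPRO Orange was heated with compounds (final 1% DMSO). Thermal denaturation was followed by probe fluorescence during a temperature ramp, and stabilization expressed as ΔTm, binned into four categories (A–D).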
Background: DSF heats the sample and reads unfolding from a dye or from intrinsic fluorescence.

Regarding `CCN(CC(=O)Nc1c(Cl)cccc1Cl)Cc1nc2ccsc2c(=O)[nH]1` [Compound A], for the setting “DSF dose response, maximum shift”, the “stabilization of recombinant human IDUA (thermal shift)” value is “up to 4 °C”. Moreover, the Kd (thermal shift dose response curve) stood at 22 µM.

In general, Kd refers to the equilibrium constant for the complex coming apart.
